Test results reported in patent publication US20160199436A1, “METHODS AND COMPOSITIONS FOR THE TREATMENT OF AMYOTROPHIC LATERAL SCLEROSIS” (University of Iowa Research Foudation, priority 2015, published 2016).
“Also recorded” adds a separate entry of the source.

Experiments:
SOD1 mice [1] = assay: Survival of SOD1 mice (ALS model), Kaplan Meier; assay type: in vivo, mouse
Text: (§1) In this Example, SOD1 mice, a known and accepted model of amyotrophic lateral sclerosis (ALS), were used to assess the effects of angiotensin (1-7) peptides, here TXA127 (SEQ ID NO: 1), on survival and quality of life over time. The SOD1 mouse line are known to contain a G93A mutation in their superoxide dismutase 1 (SOD1) gene, and this mutation leads to a phenotype very similar to the phenotype of a human ALS sufferer.
(§2) A total of 70 mice were used in this study, 40 SOD1 mice and 30 wild type C57BL/6J mice (all were obtained from the Jackson Laboratories). Mice were three weeks old at the beginning of the study, and osmotic minipumps were implanted in each animal. After implantation, each animal was exposed to either 500 μg/kg/day TXA127 (SEQ ID NO: 1) or saline vehicle for up to 8 weeks. After 8 weeks, surviving mice received a daily injection of either 500 μg/kg TXA127 (SEQ ID NO: 1) or vehicle.

SOD1 mice [2] = assay: ALS score (disease progression/quality of life) in SOD1 mice; assay type: in vivo, mouse
Text: as §1, §2
In addition to survival, disease progression/quality of life was measured over time using the rating scale described above. […] FIG. 3 further describes this effect, by showing the percentage of animals in each SOD1 group that were rated as having an ALS score of 2 or less over time.

[3] = 500 μg/kg/day TXA127 vs SOD1-vehicle, up to 30 weeks

Asp^1-Arg^2-Val^3-Tyr^4-Ile^5-His^6-Pro^7 [TXA127]
effect on survival (in words) (SOD1 mice [1]; 500 μg/kg/day TXA127): powerful survival benefit; also recorded: significant effect on survival
extension of life (median) versus vehicle treated SOD1 mice (SOD1 mice [1]; 500 μg/kg/day TXA127): 30 days
median survival (SOD1 mice [1]; 500 μg/kg/day TXA127 by osmotic minipump up to 8 weeks, then daily injection): 164 days
disease progression (summary in words) (SOD1 mice [2]; 500 μg/kg/day TXA127): delays disease progression
percentage of animals with an ALS score of 2 or less over time (FIG. 3) (SOD1 mice [2]; [3]): clearly delayed the worsening of symptoms, often by several weeks
sum of ALS scores over time (FIG. 2) (SOD1 mice [2]; [3]): significantly delaying worsening of symptoms
